# Experimental data from patent US20010046662A1, “Method of inactivating pathogens in a red blood cell-containing composition” (priority 2000, published 2001).
# Several values for one entry are separate records, joined by “and”; a condition that tells them apart may be missing. Equal entries are not always repeated.
# Tests used:
# red cells = assay: Red cell hemolysis at day 42 for DMMB+light treated samples in a flow system; details: for Hemolysis (%), day 42: approximately 3.5 μM DMMB, no blocker, stored at 1-6° C.
# VSV = assay type: cell-based, vesicular stomatitis virus
# red blood cells = details: with type 1/type 2 quenchers, optimized conditions; cited from earlier work
compound,measurement,setting,value
"Cc1cc(N(C)C)cc2[s+]c3cc(N(C)C)cc(C)c3nc12 [DMMB, 1,9-dimethylmethylene blue]","Hemolysis (%), day 42",red cells; light fluence 226 mJ/cm^2,2.8% and 2.84%
same,"Hemolysis (%), day 42",red cells; light fluence 889 mJ/cm^2,14.5% and 14.53%
same,"Hemolysis (%), day 42",red cells; light fluence 1597 mJ/cm^2,12.10%
same,increase in hemolysis with greater light fluences,"red cells; samples lacking riboflavin, 2.8 to 14.5%",500%
same,increase in VSV inactivation with greater light fluences,VSV,50%
"Cc1cc2nc3c(=O)[nH]c(=O)nc-3n(C[C@H](O)[C@H](O)[C@H](O)CO)c2cc1C [riboflavin, 7,8-dimethyl-10-ribitylisoalloxazine]",enhancement of VSV inactivation by addition of the blocker,VSV,> 4.1 log10
phthalocyanine 4,cells that hemolyze after 21 days of storage,red blood cells,about 2%
